According to patent publication US6544987B2, “Compounds, compositions, and methods for stimulating neuronal growth and elongation” (Pfizer Inc., priority 1999, dated 2003):
pKi: −log10 of the molar value. Several values for one entry are separate records, joined by “and”; a condition that tells them apart may be missing. Identical values can stand only once.

Target: FKBP12 (Homo sapiens, UniProt P62942)
Experiment: Affinity for FKBP-12 (Ki), succinyl-Ala-Leu-Pro-Phe-pNA chymotrypsin-coupled assay
Format: biochemical
Design: key to FKBP12 inhibition (in Kiapps column): NI: no inhibition; NSI: no significant inhibition
Details: @ 20
Protocol: In a quartz cuvette, a final 1 mL buffer concentration was reached (50 mM Hepes, 100 mM NaCl, pH 8.0). Within this final reaction volume, 3.5 μL […] FKBP-12 (in 50 mM Hepes, 100 mM NaCl, pH 8.0) and 10 μL test compound in DMSO were added. The reaction was initiated by adding 10 μL chymotrypsin (100 mg/mL in 1 mM HCl) followed by 5 μL (1-20 mM succinyl-Ala-Leu-Pro-Phe-pNA in 240 mM LiCl/TFE).
The absorbance at 390 nm versus time was monitored for up to 400 seconds. Rate constants were determined from the absorbance versus time plots generated.

Sequence of FKBP12 (P62942 whole entry, species assumed): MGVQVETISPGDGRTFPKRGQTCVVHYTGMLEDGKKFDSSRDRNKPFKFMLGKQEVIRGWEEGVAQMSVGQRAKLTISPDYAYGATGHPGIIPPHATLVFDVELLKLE

Row | FKBP12 inhibition (in Kiapps column) | Compound
1 | NSI @ 20 | O=C1[C@@H]2CCCN2S(=O)(=O)N1c1cccnc1 [Compound 117, (S)-1,1-Dioxo-2-pyridin-3-yl-hexahydro-1λ^6-thia-2,6a-diaza-pentalen-3-one]
2 | NI @ 20 | O=C(OCCCCc1ccccc1)[C@@H]1CCCCN1S(=O)(=O)N(O)c1ccccc1 [Compound 99, (S)-1-(Hydroxy-phenyl-sulfamoyl)-piperidine-2-carboxylic acid 4-phenyl-butyl ester]

Same assay, conditions: Table 2; read-out: FKBP12 Kiapps

Row | Compound | pKi
3 | COc1cc(N2C(=O)[C@@H]3CCCCN3S2(=O)=O)cc(OC)c1OC [Compound 40, 1,1-Dioxo-2-(3,4,5-trimethoxy-phenyl)-hexahydro-1-[1,2,5] Thiadiazolo [2,3-] pyridin-3-one] | 3.64
4 | COc1cc(NS(=O)(=O)N2[C@H]3CC[C@H](C3)[C@H]2C(=O)OCCCCc2ccccc2)cc(OC)c1OC [Compound 85, 2-(3,4,5-Trimethoxy-phenylsulfamoyl)-2-aza-bicyclo[2.2.1]heptane-endo-3-carboxylic acid 4-phenyl-butyl ester] | 5.80
5 | CCC(C)(C)NS(=O)(=O)N1CCC[C@H]1COC(=O)N(CCc1ccccc1)Cc1ccccc1 [Compound 113, Benzyl-phenethyl-carbamic acid (S)-1-(dimethyl-propylsulfamoyl)-pyrrolidin-2-ylmethyl ester] | 4.48
6 | O=C(OCCCCc1ccccc1)C1CSCCN1S(=O)(=O)Nc1ccccc1 (stereo not drawn) [Compound 69, 4-Phenylsulfamoyl-thiomorpholine-3-carboxylic acid 4-phenyl-butyl ester] | 5.28
7 | COc1ccc(N(C)S(=O)(=O)N2CCCC[C@H]2c2nnc(Cc3ccccc3)o2)cc1 [Compound 77, 2-(5-Benzyl-[1,3,4]oxadiazol-2-yl)-piperidine-1-sulfonic acid (4-methoxy-phenyl)-methyl-amide] | 4.17
8 | COc1cc(NS(=O)(=O)N2CCCC[C@H]2c2nnc(Cc3ccccc3)o2)cc(OC)c1OC [Compound 78, 2-(5-Benzyl-[1,3,4]oxadiazol-2-yl)-piperidine-1-sulfonic acid (3,4,5-trimethoxy-phenyl)-amide] | 5.28
9 | O=C(OCc1ccccc1)[C@@H]1CCCN1S(=O)(=O)Nc1ccccc1 [Compound 28, 1-Phenylsulfamoyl-pyrrolidine-2S-carboxylic acid Benzyl ester] | 4.71
10 | O=C(OCc1ccccc1)[C@@H]1CCCN1S(=O)(=O)Nc1cccnc1 [Compound 115, (S)-1-(Pyridin-3-ylsulfamoyl)-pyrrolidine-2-carboxylic acid benzyl ester] | 4.69
11 | CCC(C)(C)NS(=O)(=O)N1CCC[C@H]1C(=O)NCCCc1cccnc1 [Compound 114, (S)-1-(1,1-Dimethyl-propylsulfamoyl)-pyrrolidine-2-carboxylic acid (3-pyridin-3-yl-propyl)-amide] | 5.95
12 | NS(=O)(=O)N1CCCC[C@H]1C(=O)OCCCCc1ccccc1 [Compound 41, 1-Sulfamoyl-piperidine-2S-carboxylic acid 4-phenyl-butyl ester] | 4.42
13 | O=C(OCc1ccccc1)[C@@H]1CCCN1S(=O)(=O)Oc1ccccc1 [Compound 15, 1-Phenoxy sulfonyl-pyrrolidine-2S-carboxylic acid benzyl ester] | 4.56
14 | COC(=O)[C@@H]1CCCCN1S(=O)(=O)Nc1cc(OC)c(OC)c(OC)c1 [Compound 90, (S)-1-(3,4,5-Trimethoxy-phenylsulfamoyl)-piperidine-2-carboxylic acid Methyl ester] | 5.16
15 | O=C(OCCCCc1ccccc1)[C@@H]1CCCCN1S(=O)(=O)Nn1cccc1 [Compound 47, 1-(Pyrrol-1-ylsulfamoyl)-piperidine-2S-carboxylic acid 4-phenylbutyl ester] | 5.80
16 | COc1cc(NS(=O)(=O)N2CCCC[C@H]2C(=O)NCCCN2CCCCC2)cc(OC)c1OC [Compound 91, (S)-1-(3,4,5-Trimethoxy-phenylsulfamoyl)-piperidine-2-carboxylic acid (3-piperidin-1-yl-propyl)-amide] | 5.89
17 | COc1cc(NS(=O)(=O)N2CCCC[C@H]2C(=O)OC(COCc2ccccc2)COCc2ccccc2)c(OC)cc1Cl [Compound 104, (S)-1-(4-Chloro-2,5-dimethoxy-phenylsulfamoyl)-piperidine-2-carboxylic acid 2-benzyloxy-1-benzyloxymethyl-ethyl ester] | 5.15
18 | COc1cc(NS(=O)(=O)N2CCCC[C@H]2C(=O)CCCCCc2ccccc2)cc(OC)c1OC [Compound 119, (S)-2-(6-Phenyl-hexanoyl)-piperidine-1-sulfonic acid (3,4,5-trimethoxy-phenyl)-amide] | 5.89
19 | COc1cc(NS(=O)(=O)N2CCC[C@H]2C(=O)OCc2ccccc2)cc(OC)c1OC [Compound 29, 1-(3,4,5-Trimethoxy-phenylsulfamoyl)-pyrrolidine-2S-carboxylic acid Benzyl ester] | 4.46
20 | COc1cc(NS(=O)(=O)N2CCSCC2C(=O)OCCCCc2ccccc2)cc(OC)c1OC (stereo not drawn) [Compound 68, 4-(3,4,5-trimethoxy-phenylsulfamoyl)-thiomorpholine-3-carboxylic acid 4-phenyl-butyl ester] | 5.36 and 5.19
21 | NS(=O)(=O)N1CCSCC1C(=O)OCCCCc1ccccc1 (stereo not drawn) [Compound 67, 4-sulfamoyl-thiomorpholine-3-carboxylic acid 4-phenyl-butyl ester] | 3.48 and 3.57

Other lines, results leading:

Row | pKi | Compound
22 | 6.70 | COc1cc(NS(=O)(=O)N2CCCC[C@H]2C(=O)NCCCc2cccnc2)cc(OC)c1OC [Compound 93, (S)-1-(3,4,5-Trimethoxy-phenylsulfamoyl)-piperidine-2-carboxylic acid (3-pyridin-3-yl-propyl)-amide]
23 | 7.08 | O=C(OCCCCc1ccccc1)[C@@H]1CCCCN1S(=O)(=O)Nc1ccc2[nH]c(=O)[nH]c2c1 [Compound 45, 1-(2-Oxo-2,3-dihydro-1H-benzoimidazol-5-ylsulfamoyl)-piperidine-2-carboxylic acid 4-phenyl-butyl ester]
24 | 6.12 | COc1ccc(NS(=O)(=O)N2CCCC[C@H]2C(=O)OCc2ccccc2)cn1 [Compound 87, 1-(6-Methoxy-pyridin-3-ylsulfamoyl)-piperidine-2S-carboxylic acid Benzyl ester]
25 | 6.90 | O=C(OC(COCc1ccccc1)COCc1ccccc1)[C@@H]1CCCCN1S(=O)(=O)Nc1cnc(N2CCOCC2)c(C(F)(F)F)c1 [Compound 108, (S)-1-(Morpholin-4-yl-trifluoromethyl-pyridin-3-ylsulfamoyl)-piperidine-2-carboxylic acid 2-benzyloxy-1-benzyloxymethyl-ethyl ester]
26 | 6.32 | O=C(OCCCCc1ccccc1)[C@@H]1CCCCN1S(=O)(=O)Nc1ccc2nc[nH]c2c1 [Compound 56, (S)-1-(3H-Benzoimidazol-5-ylsulfamoyl)-piperidine-2-carboxylic acid 4-phenyl-butyl ester]
27 | 6.77 | COc1cc(NS(=O)(=O)N2CCCC[C@H]2C(=O)OC(COCc2ccccc2)COCc2ccccc2)cc(OC)c1OC [Compound 102, (S)-1-(3,4,5-Trimethoxy-phenylsulfamoyl)-piperidine-2-carboxylic acid 2-benzyloxy-1-benzyloxymethyl-ethyl ester]
28 | 6.36 | O=C(OCCCCc1ccccc1)[C@@H]1CCCCN1S(=O)(=O)Nc1cc(F)c(F)c(F)c1 [Compound 95, (S)-1-(3,4,5-Trifluoro-phenylsulfamoyl)-piperidine-2-carboxylic acid 4-phenyl-butyl ester]
29 | 6.02 | O=C(OCCCCc1ccccc1)C1CSCCN1S(=O)(=O)Nc1ccc2[nH]c(=O)[nH]c2c1 (stereo not drawn) [Compound 70, 4-(2-Oxo-2,3-dihydro-1H-benzoimidazol-5-ylsulfamoyl)-thiomorpholine-3-carboxylic acid 4-phenyl-butyl ester]
30 | 6.94 | O=C(OC(COCc1ccccc1)COCc1ccccc1)[C@@H]1CCCCN1S(=O)(=O)Nc1ccc(N2CCOCC2)nc1 [Compound 106, (S)-1-(6-Morpholin-4-yl-pyridin-3-ylsulfamoyl)-piperidine-2-carboxylic acid 2-benzyloxy-1-benzyloxymethyl-ethyl ester]
31 | 7.41 | COc1ccc(NS(=O)(=O)N2CCCC[C@H]2C(=O)OC(COCc2ccccc2)COCc2ccccc2)cn1 [Compound 103, (S)-1-(6-Methoxy-pyridin-3-ylsulfamoyl)-piperidine-2-carboxylic acid 2-benzyloxy-1-benzyloxymethyl-ethyl ester]
32 | 6.82 | O=C(OCCCCc1ccccc1)[C@@H]1CCCCN1S(=O)(=O)Nc1ccc(Cl)nc1 [Compound 52, (S)-1-(6-Chloro-pyridin-3-ylsulfamoyl)-piperidine-2-carboxylic acid 4-phenyl-butyl ester]
33 | 6.46 | COc1cc(NS(=O)(=O)N2CCCC[C@H]2C(=O)OCCCCc2ccccc2)cc(OC)c1 [Compound 48, 1-(3,5-Dimethoxy-phenylsulfamoyl)-piperidine-2S-carboxylic acid 4-phenyl-butyl ester]
34 | 6.40 | COc1cc(NS(=O)(=O)N2CCCC[C@H]2C(=O)OCc2ccccc2)cc(OC)c1OC [Compound 36, 1-(3,4,5-Trimethoxy-phenylsulfamoyl)-piperidine-2S-carboxylic acid Benzyl ester]
35 | 6.58 | O=C(OCCCCc1ccccc1)[C@@H]1CCCCN1S(=O)(=O)Nc1ccc(N2CCOCC2)cc1 [Compound 42, (S)-1-(4-morpholin-4-yl-phenylsulfamoyl)-piperidine-2-carboxylic 4-phenyl-butyl ester]
36 | 6.03 | NC(=O)C1CCCN(S(=O)(=O)N2CCCC[C@H]2C(=O)OCCCCc2ccccc2)C1 (stereo partly drawn) [Compound 51, 1-(3-Carbamoyl-piperidine-1-sulfonyl)-piperidine-2S-carboxylic acid 4-phenyl-butyl ester]
